Test results taken from patent publication US20240217966A1, “PHARMACEUTICAL COMPOSITION CONTAINING GLP-1 RECEPTOR AGONIST HAVING FUSED RING” (Shionogi & Co., Ltd., priority 2021, published 2024).

Target: T1, Human GLP-1 receptor (Homo sapiens, UniProt P43220)
T1 construct: expressed in transfected cells
Test: Measurement of GLP-1 receptor agonist activity (cAMP assay)
Format: cell-based
Details: for Emax: CHO-K1, hGLP-1R/CHO-K1 cells, cAMP, 100% = human GLP-1 (7-36) at 2 nM, 0% = DMSO only, read-out: Emax(%); for EC50: hGLP-1R/CHO-K1 cells, cAMP increase, 37° C. 1 hour
In short: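 Agonism measured as cAMP accumulation by time-resolved FRET immunoassay in CHO-K1 cells stably expressing human GLP-1 receptor. Cells treated for 1 h at 37 °C with compound and forskolin (400 μM stock), in buffer containing the PDE inhibitors IBMX (0.1 mM) and RO20-1724 (0.2 mM).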

T1 sequence (P43220 24-463): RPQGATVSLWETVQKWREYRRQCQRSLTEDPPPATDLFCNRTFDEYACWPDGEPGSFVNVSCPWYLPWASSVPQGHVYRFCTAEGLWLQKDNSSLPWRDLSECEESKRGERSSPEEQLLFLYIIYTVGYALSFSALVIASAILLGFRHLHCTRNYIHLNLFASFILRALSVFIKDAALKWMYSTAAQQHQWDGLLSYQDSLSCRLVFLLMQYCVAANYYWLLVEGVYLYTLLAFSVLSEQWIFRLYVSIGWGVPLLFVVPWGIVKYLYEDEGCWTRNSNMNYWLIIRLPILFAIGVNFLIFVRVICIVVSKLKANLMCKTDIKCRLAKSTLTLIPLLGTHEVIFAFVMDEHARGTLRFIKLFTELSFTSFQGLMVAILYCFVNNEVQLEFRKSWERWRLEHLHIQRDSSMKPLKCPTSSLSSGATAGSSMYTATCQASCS

C[C@H]1c2cc(OCc3ccc(Cl)cc3F)c(Cl)cc2CCN1Cc1nc2ccc(C(=O)O)cc2n1C[C@@H]1CCO1 [Compound I-174]
Emax: 109%
EC50: 1.58 nM

COc1ccc(COc2cc3c(cc2C(F)(F)F)CCN(Cc2nc4ccc(C(=O)O)nc4n2C[C@@H]2CCO2)[C@H]3C)cc1 [Compound I-175]
Emax: 101%
EC50: 3.58 nM

C[C@H]1c2cc(OCc3ccc(Cl)cn3)c(C(F)(F)F)cc2CCN1Cc1nc2ccc(C(=O)O)nc2n1C[C@@H]1CCO1 [Compound I-176]
Emax: 98.3%
EC50: 2.12 nM

Cc1csc(COc2cc3c(cc2C(F)(F)F)CCN(Cc2nc4ccc(C(=O)O)nc4n2C[C@@H]2CCO2)[C@H]3C)n1 [Compound I-177]
Emax: 107%
EC50: 3.09 nM

C[C@H]1c2cc(OCc3ccc(Cl)cc3)c(C(F)(F)F)cc2CCN1Cc1nc2ccc(C(=O)O)nc2n1C[C@@H]1CCO1 [Compound I-178]
Emax: 111%
EC50: 1.97 nM

Cc1ccc(COc2cc3c(cc2C(F)(F)F)CCN(Cc2nc4ccc(C(=O)O)nc4n2C[C@@H]2CCO2)[C@H]3C)cc1 [Compound I-179]
Emax: 99%
EC50: 1.88 nM

C[C@H]1c2cc(OCc3ccc(C4CC4)cc3)c(C(F)(F)F)cc2CCN1Cc1nc2ccc(C(=O)O)nc2n1C[C@@H]1CCO1 [Compound I-180]
Emax: 97.3%
EC50: 8.94 nM

COc1cc(Cl)ccc1COc1cc2c(cc1C(F)(F)F)CCN(Cc1nc3ccc(C(=O)O)nc3n1C[C@@H]1CCO1)[C@H]2C [Compound I-181]
Emax: 116%
EC50: 0.374 nM

C[C@H]1c2cc(OCc3ccccc3Cl)c(C(F)(F)F)cc2CCN1Cc1nc2ccc(C(=O)O)nc2n1C[C@@H]1CCO1 [Compound I-182]
Emax: 126%
EC50: 3.31 nM

C[C@H]1c2cc(OCc3ccc(F)cc3F)c(C(F)(F)F)cc2CCN1Cc1nc2ccc(C(=O)O)nc2n1C[C@@H]1CCO1 [Compound I-183]
Emax: 98%
EC50: 2.54 nM

C[C@H]1c2cc(OCc3ccc(OC(F)F)cc3F)c(C(F)(F)F)cc2CCN1Cc1nc2ccc(C(=O)O)nc2n1C[C@@H]1CCO1 [Compound I-184]
Emax: 98%
EC50: 4.75 nM

C[C@H]1c2cc(OCc3cc(F)c(Cl)cc3F)c(C(F)(F)F)cc2CCN1Cc1nc2ccc(C(=O)O)nc2n1C[C@@H]1CCO1 [Compound I-185]
Emax: 106%
EC50: 2.2 nM

C[C@H]1c2cc(OCc3ccc(C#N)cc3F)c(C(F)(F)F)cc2CCN1Cc1nc2ccc(C(=O)O)nc2n1C[C@@H]1CCO1 [Compound I-186]
Emax: 111%
EC50: 3.28 nM

C[C@H]1c2cc(OCc3ccc(F)cc3)c(C(F)(F)F)cc2CCN1Cc1nc2ccc(C(=O)O)nc2n1C[C@@H]1CCO1 [Compound I-187]
Emax: 105%
EC50: 4.2 nM

C[C@H]1c2cc(OCc3c(F)cc(F)cc3F)c(C(F)(F)F)cc2CCN1Cc1nc2ccc(C(=O)O)nc2n1C[C@@H]1CCO1 [Compound I-188]
Emax: 90.3%
EC50: 1.79 nM

COc1cc(C(=O)O)cc2c1nc(CN1CCc3cc(C(F)(F)F)c(OCc4ccc(Cl)cc4F)cc3[C@@H]1C)n2C[C@@H]1CCO1 [Compound I-189]
Emax: 122%
EC50: 0.0651 nM

COc1ccc(COc2cc3c(cc2C(F)(F)F)CCN(Cc2nc4ccc(C(=O)O)c(F)c4n2C[C@@H]2CCO2)[C@H]3C)cc1 [Compound I-190]
Emax: 109%
EC50: 1.08 nM

C[C@H]1c2cc(OCc3ccc(Cl)cn3)c(C(F)(F)F)cc2CCN1Cc1nc2ccc(C(=O)O)c(F)c2n1C[C@@H]1CCO1 [Compound I-191]
Emax: 130%
EC50: 0.644 nM

Cc1csc(COc2cc3c(cc2C(F)(F)F)CCN(Cc2nc4ccc(C(=O)O)c(F)c4n2C[C@@H]2CCO2)[C@H]3C)n1 [Compound I-192]
Emax: 123%
EC50: 1.2 nM

C[C@H]1c2cc(OCc3ccc(Cl)cc3)c(C(F)(F)F)cc2CCN1Cc1nc2ccc(C(=O)O)c(F)c2n1C[C@@H]1CCO1 [Compound I-193]
Emax: 115%
EC50: 0.73 nM

Cc1ccc(COc2cc3c(cc2C(F)(F)F)CCN(Cc2nc4ccc(C(=O)O)c(F)c4n2C[C@@H]2CCO2)[C@H]3C)cc1 [Compound I-194]
Emax: 111%
EC50: 0.741 nM

C[C@H]1c2cc(OCc3ccc(C4CC4)cc3)c(C(F)(F)F)cc2CCN1Cc1nc2ccc(C(=O)O)c(F)c2n1C[C@@H]1CCO1 [Compound I-195]
Emax: 96.3%
EC50: 3.29 nM

COc1cc(Cl)ccc1COc1cc2c(cc1C(F)(F)F)CCN(Cc1nc3ccc(C(=O)O)c(F)c3n1C[C@@H]1CCO1)[C@H]2C [Compound I-196]
Emax: 106%
EC50: 0.136 nM

C[C@H]1c2cc(OCc3ccccc3Cl)c(C(F)(F)F)cc2CCN1Cc1nc2ccc(C(=O)O)c(F)c2n1C[C@@H]1CCO1 [Compound I-197]
Emax: 119%
EC50: 1.33 nM

C[C@H]1c2cc(OCc3ccc(F)cc3F)c(C(F)(F)F)cc2CCN1Cc1nc2ccc(C(=O)O)c(F)c2n1C[C@@H]1CCO1 [Compound I-198]
Emax: 128%
EC50: 1.17 nM

C[C@H]1c2cc(OCc3ccc(OC(F)F)cc3F)c(C(F)(F)F)cc2CCN1Cc1nc2ccc(C(=O)O)c(F)c2n1C[C@@H]1CCO1 [Compound I-199]
Emax: 128%
EC50: 0.86 nM

C[C@H]1c2cc(OCc3cc(F)c(Cl)cc3F)c(C(F)(F)F)cc2CCN1Cc1nc2ccc(C(=O)O)c(F)c2n1C[C@@H]1CCO1 [Compound I-200]
Emax: 102%
EC50: 0.577 nM

C[C@H]1c2cc(OCc3ccc(Cl)cc3Cl)c(C(F)(F)F)cc2CCN1Cc1nc2ccc(C(=O)O)c(F)c2n1C[C@@H]1CCO1 [Compound I-201]
Emax: 123%
EC50: 0.274 nM

COc1ccc(COc2cc3c(cc2C(F)(F)F)CCN(Cc2nc4c(F)cc(C(=O)O)cc4n2C[C@@H]2CCO2)[C@H]3C)cc1 [Compound I-202]
Emax: 105%
EC50: 1.66 nM

C[C@H]1c2cc(OCc3ccc(Cl)cn3)c(C(F)(F)F)cc2CCN1Cc1nc2c(F)cc(C(=O)O)cc2n1C[C@@H]1CCO1 [Compound I-203]
Emax: 104%
EC50: 0.31 nM

Cc1csc(COc2cc3c(cc2C(F)(F)F)CCN(Cc2nc4c(F)cc(C(=O)O)cc4n2C[C@@H]2CCO2)[C@H]3C)n1 [Compound I-204]
Emax: 117%
EC50: 0.509 nM

C[C@H]1c2cc(OCc3ccc(Cl)cc3)c(C(F)(F)F)cc2CCN1Cc1nc2c(F)cc(C(=O)O)cc2n1C[C@@H]1CCO1 [Compound I-205]
Emax: 109%
EC50: 0.447 nM

Cc1ccc(COc2cc3c(cc2C(F)(F)F)CCN(Cc2nc4c(F)cc(C(=O)O)cc4n2C[C@@H]2CCO2)[C@H]3C)cc1 [Compound I-206]
Emax: 110%
EC50: 0.511 nM

C[C@H]1c2cc(OCc3ccc(C4CC4)cc3)c(C(F)(F)F)cc2CCN1Cc1nc2c(F)cc(C(=O)O)cc2n1C[C@@H]1CCO1 [Compound I-207]
Emax: 90.3%
EC50: 1.72 nM

COc1cc(Cl)ccc1COc1cc2c(cc1C(F)(F)F)CCN(Cc1nc3c(F)cc(C(=O)O)cc3n1C[C@@H]1CCO1)[C@H]2C [Compound I-208]
Emax: 109%
EC50: 0.0824 nM

C[C@H]1c2cc(OCc3ccccc3Cl)c(C(F)(F)F)cc2CCN1Cc1nc2c(F)cc(C(=O)O)cc2n1C[C@@H]1CCO1 [Compound I-209]
Emax: 112%
EC50: 0.984 nM

C[C@H]1c2cc(OCc3ccc(F)cc3F)c(C(F)(F)F)cc2CCN1Cc1nc2c(F)cc(C(=O)O)cc2n1C[C@@H]1CCO1 [Compound I-210]
Emax: 113%
EC50: 0.434 nM

C[C@H]1c2cc(OCc3ccc(Cl)cc3Cl)c(C(F)(F)F)cc2CCN1Cc1nc2c(F)cc(C(=O)O)cc2n1C[C@@H]1CCO1 [Compound I-211]
Emax: 103%
EC50: 0.181 nM

C[C@H]1c2cc(OCc3ccc(OC(F)F)cc3F)c(C(F)(F)F)cc2CCN1Cc1nc2c(F)cc(C(=O)O)cc2n1C[C@@H]1CCO1 [Compound I-212]
Emax: 104%
EC50: 1 nM

C[C@H]1c2cc(OCc3cc(F)c(Cl)cc3F)c(C(F)(F)F)cc2CCN1Cc1nc2c(F)cc(C(=O)O)cc2n1C[C@@H]1CCO1 [Compound I-213]
Emax: 122%
EC50: 0.366 nM

C[C@H]1c2cc(OCc3ccc(C#N)cc3F)c(C(F)(F)F)cc2CCN1Cc1nc2c(F)cc(C(=O)O)cc2n1C[C@@H]1CCO1 [Compound I-214]
Emax: 104%
EC50: 0.392 nM

C[C@H]1c2cc(OCc3ccc(C(F)F)cc3F)c(C(F)(F)F)cc2CCN1Cc1nc2ccc(C(=O)O)cc2n1C[C@@H]1CCO1 [Compound I-215]
Emax: 106%
EC50: 1.82 nM

O=C(O)c1ccc2nc(CN3CCc4cc(C(F)(F)F)c(OCc5c(F)cc(C(F)F)cc5F)cc4C3)n(C[C@@H]3CCO3)c2c1 [Compound I-216]
Emax: 103%
EC50: 8.62 nM

O=C(O)c1ccc2nc(CN3CCc4cc(C(F)(F)F)c(OCc5c(F)cc(OC(F)F)cc5F)cc4C3)n(C[C@@H]3CCO3)c2c1 [Compound I-217]
Emax: 103%
EC50: 2.34 nM

C[C@H]1c2nc(OCc3ccc(F)cc3)c(C(F)(F)F)cc2CCN1Cc1nc2ccc(C(=O)O)cc2n1C[C@@H]1CCO1 [Compound I-218]
Emax: 109%
EC50: 0.179 nM

C[C@H]1c2cc(OCc3ccc(C#N)cc3F)c(C(F)(F)F)cc2CCN1Cc1nc2ccc(C(=O)O)c(F)c2n1C[C@@H]1CCO1 [Compound I-219]
Emax: 114%
EC50: 1.2 nM

C[C@H]1c2nc(OCc3ccc(F)cc3Cl)c(C(F)(F)F)cc2CCN1Cc1nc2ccc(C(=O)O)cc2n1C[C@@H]1CCO1 [Compound I-220]
Emax: 110%
EC50: 0.251 nM

C[C@H]1c2cc(OCc3ccc(C#N)cc3F)c(Cl)cc2CCN1Cc1nc2ccc(C(=O)O)cc2n1C[C@@H]1CCO1 [Compound I-221]
Emax: 125%
EC50: 6.07 nM

O=C(O)c1ccc2nc(CN3CCc4cc(C(F)(F)F)c(OCc5ccc(Cl)cc5F)nc4C3)n(C[C@@H]3CCO3)c2c1F [Compound I-222]
Emax: 108%

C[C@H]1c2nc(OCc3ccc(Cl)cc3)c(C(F)(F)F)cc2CCN1Cc1nc2ccc(C(=O)O)c(F)c2n1C[C@@H]1CCO1 [Compound I-223]
Emax: 103%
EC50: 0.12 nM
